Experimental data taken from patent US6632829B2, “Sulfonamides and derivatives thereof that modulate the activity of endothelin” (Texas Biotechnology Corp., priority 1996, dated 2003).

How the values were obtained:
Papp = format: in vitro ADME; conditions: not told
human ETA receptors = molecular target: T1, human ETA receptors (Homo sapiens, UniProt P25101); test: Endothelin binding inhibition, Binding Test #1: competition with 125I-ET-1 for ETA receptors on TE 671 cell membranes
T1 construct: endogenous in cells; host or cells: TE 671 cells (ATCC HTB 139), membrane preparation
T1 sequence (P25101 21-427): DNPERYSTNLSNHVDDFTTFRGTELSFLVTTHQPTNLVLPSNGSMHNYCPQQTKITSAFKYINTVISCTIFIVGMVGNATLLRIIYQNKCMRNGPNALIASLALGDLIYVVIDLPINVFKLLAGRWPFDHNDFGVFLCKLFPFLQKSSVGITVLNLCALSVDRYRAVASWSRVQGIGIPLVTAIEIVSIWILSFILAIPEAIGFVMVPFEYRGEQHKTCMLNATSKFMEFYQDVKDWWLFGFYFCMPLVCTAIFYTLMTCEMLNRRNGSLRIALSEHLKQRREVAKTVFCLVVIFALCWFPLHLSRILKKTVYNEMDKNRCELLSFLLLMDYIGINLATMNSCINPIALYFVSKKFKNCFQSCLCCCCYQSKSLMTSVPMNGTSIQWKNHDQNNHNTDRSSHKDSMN

human ETB receptor = molecular target: T2, human ETB receptor (Homo sapiens, UniProt P24530); test: Endothelin binding inhibition, Binding Test #2: competition with 125I-ET-1 for ETB receptors on transfected COS7 cell membranes
T2 construct: expressed in transfected cells; host or cells: COS7 cells
T2 sequence (P24530 27-442): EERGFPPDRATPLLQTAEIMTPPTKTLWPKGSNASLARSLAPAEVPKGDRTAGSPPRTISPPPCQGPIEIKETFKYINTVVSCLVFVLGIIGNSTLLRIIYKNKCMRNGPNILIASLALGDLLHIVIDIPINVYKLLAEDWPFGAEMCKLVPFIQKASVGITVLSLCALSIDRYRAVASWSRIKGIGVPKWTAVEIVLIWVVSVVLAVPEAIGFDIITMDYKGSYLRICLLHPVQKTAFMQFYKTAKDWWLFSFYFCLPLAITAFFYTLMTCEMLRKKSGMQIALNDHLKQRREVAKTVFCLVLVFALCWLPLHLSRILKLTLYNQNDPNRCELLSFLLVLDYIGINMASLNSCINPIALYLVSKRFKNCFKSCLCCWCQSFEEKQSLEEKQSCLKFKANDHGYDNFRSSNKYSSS
Summary of the method: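 Membranes from COS7 cells transfected with human ETB receptor, prepared in HEPES pH 7.4 with aprotinin, MnCl2/DNase treatment at 37° C for 30 min. Test compounds compete with 125I-labeled ET-1 for receptor binding; membrane used at 1 μg/50 μL binding buffer.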

[1] = Oral half-life and peak plasma levels; format: in vivo; conditions: for POt½ in Rat: oral; for Peak Plasma Levels: rat, in vivo
Source text: As used herein, bioavailability refers to the rate and extent of absorption. Methods for determining bioavailability are well known to those of skill in the art. For example, bioavailability of any of the compounds described herein can be determined empirically by administration of the compound to an animal, followed by taking blood samples over time and measuring the blood concentration of the compound. In vivo half life (t1/2) is defined as the time it takes for the concentration of the compound in the blood to be reduced by one-half. Estimations of the area under the curve for intravenous administration can be used to estimate the area under the curve for oral administration, ylelding bioavailability data. See, e.g., Milo Gibal (1991) Biopharmaceutics and Pharmacology, 4th edition (Lea and Sediger).
Table 2 lists oral half-life, bioavailability, and in vivo activity of selected exemplary compounds. The in vivo activity was measured in a pulmonary hypertension model and is a measure of the activity of the compounds at selected dosages.

[2] = system: Pulmonary Hypertension model; test: Pulmonary Hypertension model; format: in vivo, rat; design: key: ++: effective at 5 mg/kg; −: no effect at 5 mg/kg; +: effective at 15 mg/kg
Protocol: As used herein, efficacy refers to the maximal effect that can be produced by a compound. Efficacy can be determined by methods known to those of skill in the art. For example, it can be determined by the properties of the compound and its receptor-effector system and is reflected in the plateau of the concentration-effect curve. In vivo efficacy refers to efficacy which is determined in an animal model. For example, in vivo efficacy of the compounds described herein can be determined by hypoxia-induced pulmonary hypertension in rat. See, e.g., DiCarlo et al. (1995) Am. J. Physiol. 269:[…]-[…]. Table 2 lists oral half-life, bioavailability, and in vivo activity of selected exemplary compounds. The in vivo activity was measured in a pulmonary hypertension model and is a measure of the activity of the compounds at selected dosages.

[3] = incubation at 24° C. (values marked †)
[4] = incubation at 4° C. (values without †)

Row | IC50 (human ETA receptors; [3]) [nM] | IC50 (human ETB receptor; [3]) [nM] | Compound | also measured
1 | 0.24 | 7000 | COc1cc(C#N)c(NC(=O)c2sccc2S(=O)(=O)Nc2onc(C)c2Cl)c(OC)c1OC [N-(4-chloro-3-methyl-5-isoxazolyl)-2-[(2,3,4-trimethoxy-6-cyano)phenylaminocarbonyl]thiophene-3-sulfonamide] | Papp (Papp): 0.58 ×10⁻⁶ cm/s
2 | 1.62 | 67600 | Cc1cc(C)c(NS(C)(=O)=O)c(C)c1NC(=O)c1sccc1S(=O)(=O)Nc1onc(C)c1Cl [N-(4-chloro-3-methyl-5-isoxazolyl)-2-(3-methanesulfonylamino-2,4,6-trimethylphenylaminocarbonyl)thiophene-3-sulfonamide] | POt½ in Rat [1]: 5.9 h; Peak Plasma Levels [1]: 2.6 µg/mL
3 | 0.67 | 74200 | Cc1cc(C)c(NC(=O)c2sccc2S(=O)(=O)Nc2onc(C)c2Cl)c(C)c1CO [N-(4-chloro-3-methyl-5-isoxazolyl)-2-(3-hydroxymethyl-2,4,6-trimethylphenylaminocarbonyl)thiophene-3-sulfonamide] | POt½ in Rat [1]: 1.5 h; Peak Plasma Levels [1]: 3 µg/mL; Papp (Papp): 1.56 ×10⁻⁶ cm/s
4 | 1.77 | 106000 | Cc1cc(C)c(NC(=O)c2sccc2S(=O)(=O)Nc2onc(C)c2Cl)c(C)c1CC(=O)O [N-(4-chloro-3-methyl-5-isoxazolyl)-2-(3-carboxymethyl-2,4,6-trimethylphenylaminocarbonyl)thiophene-3-sulfonamide] | Papp (Papp): 1.1 ×10⁻⁶ cm/s
5 | 1 | 114000 | COC(=O)Cc1c(C)cc(C)c(NC(=O)c2sccc2S(=O)(=O)Nc2onc(C)c2Cl)c1C [N-(4-chloro-3-methyl-5-isoxazolyl)-2-(3-methoxycarbonylmethyl-2,4,6-trimethylphenylaminocarbonyl)thiophene-3-sulfonamide] | Papp (Papp): 1.69 ×10⁻⁶ cm/s
6 | 1.56 | 22800 | Cc1cc(C)c(NC(=O)c2sccc2S(=O)(=O)Nc2onc(C)c2C)c(C)c1CC#N [N-(3,4-dimethyl-5-isoxazolyl)-2-(3-cyanomethyl-2,4,6-trimethylphenylaminocarbonyl)thiophene-3-sulfonamide] | POt½ in Rat [1]: 1.8 h; Peak Plasma Levels [1]: 10.9 µg/mL
7 | 0.88 | 7540 | Cc1cc(C)c(NC(=O)c2sccc2S(=O)(=O)Nc2noc(C)c2Cl)c(C)c1CC#N [N-(4-chloro-5-methyl-3-isoxazolyl)-2-(3-cyanomethyl-2,4,6-trimethylphenylaminocarbonyl)thiophene-3-sulfonamide] | POt½ in Rat [1]: 25.6 h; Peak Plasma Levels [1]: 13 µg/mL; in vivo Efficacy [2]: −
8 | 1.52 | 57200 | Cc1cc(C)c(NC(=O)c2sccc2S(=O)(=O)Nc2onc(C)c2Cl)c(C)c1C#N [N-(4-chloro-3-methyl-5-isoxazolyl)-2-(3-cyano-2,4,6-trimethylphenylaminocarbonyl)thiophene-3-sulfonamide] | POt½ in Rat [1]: 3.9 h; Peak Plasma Levels [1]: 20 µg/mL; in vivo Efficacy [2]: ++
9 | 0.92 | 25500 | Cc1cc(C)c(S(N)(=O)=O)c(C)c1NC(=O)c1sccc1S(=O)(=O)Nc1onc(C)c1Cl [N-(4-chloro-3-methyl-5-isoxazolyl)-2-(3-sulfamoyl-2,4,6-trimethylphenylaminocarbonyl)thiophene-3-sulfonamide] | POt½ in Rat [1]: 3.4 h; Peak Plasma Levels [1]: 2.8 µg/mL
10 | 531 | 81500 | Cc1cc(C)c(CNC(=O)c2sccc2S(=O)(=O)Nc2onc(C)c2Cl)c(C)c1CC#N [N-4-chloro-3-methyl-5-isoxazolyl)-2-(3-cyanomethyl-2,4,6-trimethylbenzylaminocarbonyl)thiophene-3-sulfonamide] | 
11 | 1600 | 39000 | Cc1noc(NS(=O)(=O)c2sccc2Cc2ccccc2)c1Br [N-(4-bromo-3-methyl-5-isoxazolyl)-3-benzylthiophene-2-sulfonamide] | 
12 | 832 | 21200 | Cc1cccc(-c2ccsc2S(=O)(=O)Nc2onc(C)c2Br)c1 [N-(4-bromo-3-methyl-5-isoxazolyl)-3-(3-tolyl)thiophene-2-sulfonamide] | 
13 | 346 | 7450 | Cc1ccc(OCc2ccsc2S(=O)(=O)Nc2onc(C)c2Br)c(C)c1 [N-(4-bromo-3-methyl-5-isoxazolyl)-3-[(2,4-dimethylphenoxy)methyl]thiophene-2-sulfonamide] | 
14 | 0.266 | 9780 | COC(=O)c1cc(C)c(NC(=O)c2sccc2S(=O)(=O)Nc2onc(C)c2Cl)c(C)c1 [N-(4-chloro-3-methyl-5-isoxazolyl)-2-[(4-methoxycarbonyl-2,6-dimethyl)phenylaminocarbonyl]thiophene-3-sulfonamide] | 
15 | 3200 |  | Cc1ccc(OC(=O)c2sccc2S(=O)(=O)Nc2onc(C)c2Cl)cc1 [N-(4-chloro-3-methyl-5-isoxazolyl)-2-[(4-methylphenoxy)carbonyl]thiophene-3-sulfonamide] | inhibition at 100 µM (human ETB receptor; read-out: ETB % inhibition @ 100 μM, @ 100 μM, incubation at 24° C.): 43%
16 | 794 | 6490 | N-(4-chloro-3-methyl-5-isoxazolyl)-2-[2-methyl-4,5-(methylenedioxy)phenylhydroxyimino]thiophene-3-sulfonamide | 
17 |  |  | Cc1ccc(NC(=O)c2sccc2S(=O)(=O)Nc2onc(C)c2C)cc1 [N-(3,4-dimethyl-5-isoxazolyl)-2-[(4-methylphenyl)aminocarbonyl]thiophene-3-sulfonamide] | IC50 (human ETA receptors; [4]): 3.36 nM; IC50 (human ETB receptor; [4]): 11300 nM
18 |  |  | Cc1noc(NS(=O)(=O)c2sccc2C(=O)Nc2ccccc2)c1C [N-(3,4-dimethyl-5-isoxazolyl))-3-(phenylaminocarbonyl)thiophene-2-sulfonamide] | IC50 (human ETA receptors; [4]): 163 nM; IC50 (human ETB receptor; [4]): > 100000 nM
19 | 190 | 2200 | COc1ccccc1Cc1sc2ccccc2c1S(=O)(=O)Nc1onc(C)c1Br [N-(4-bromo-3-methyl-5-isoxozolyl)-2-(2-methoxybenzyl)-benzo[b]thiophene-3-sulfonamide] | 
20 | 932 | 46800 | N-(4-chloro-3-methyl-5-isoxazolyl)-2-phenylbenzo[b]thiophene sulfonamide | 
21 | 62 | > 100000 | Cc1noc(NS(=O)(=O)c2ccsc2C(=O)Nc2cccc(C(=O)O)c2)c1Br [N-(4-bromo-3-methyl-5-isoxazolyl)-2-[(3-carboxyphenyl)aminocarbonyl]thiophene-3-sulfonamide] | 
22 | 6.8 | 19800 | Cc1noc(NS(=O)(=O)c2ccsc2C(=O)Nc2cc3c(cc2CNS(C)(=O)=O)OCO3)c1Cl [N-(4-chloro-3-methyl-5-isoxazolyl)-2-[2-methanesulfonylaminomethyl)-4,5-(methylenedioxy)phenylaminocarbonyl]thiophene-3-sulfonamide] | 

Row | Compound | IC50 (human ETA receptors; [3]) [nM] | IC50 (human ETB receptor; [3]) [nM] | also measured
23 | CC(=O)OCc1c(C)cc(C)c(NC(=O)c2sccc2S(=O)(=O)Nc2onc(C)c2Cl)c1C [N-(4-chloro-3-methyl-5-isoxazolyl)-2-(3-acetoxymethyl-2,4,6-trimethylphenylaminocarbonyl)thiophene-3-sulfonamide] | 0.86 | 730000 | Papp (Papp): 1.46 ×10⁻⁶ cm/s
